Earlier results on four molecules are cited in patent US20120289492A1, “METHODS OF TREATING MITOCHONDRIAL DISORDERS USING METALLOPORPHYRINS” (priority 2009, published 2012).

SMILES strings stand for the structures.

One data set deals with CD-1 Sod2−/− mice. As to conditions: cited from earlier work.
For data set [1] the following is noted: safety studies in mice, monkeys and rats; phase 1 in amyotrophic lateral sclerosis patients; cited from earlier work.

Take `COc1cccc(C=NCCN=Cc2cccc(OC)c2[O-])c1[O-].[Cl-].[Mn+3]` [EUK134]: in the data set on CD-1 Sod2−/− mice, the neurodegeneration entry is on record as “ameliorated” and the spongiform encephalopathy entry was “ameliorated”.

Regarding `CCN1C=CN(CC)C1=C1C2=NC(=C(c3n(CC)cc[n+]3CC)C3=NC(=C(c4n(CC)cc[n+]4CC)c4ccc([n-]4)C(c4n(CC)cc[n+]4CC)=C4C=CC1=N4)C=C3)C=C2.[Cl-].[Cl-].[Cl-].[Cl-].[Cl-].[Mn+3]` [AEOL10150], the serious adverse events result in data set [1] is recorded as “No serious adverse events have been found”.

Regarding `[Cl-].[Mn+3].[O-]c1ccccc1C=NCCN=Cc1ccccc1[O-]` [EUK8], in the data set on CD-1 Sod2−/− mice, the neurodegeneration result is on record as “ameliorated” and the spongiform encephalopathy entry is listed as “ameliorated”.

As for `O=C(O)c1ccc(/C2=C3\C=CC(=N3)/C(c3ccc(C(=O)O)cc3)=c3/cc/c4[n]3[Mn]([Cl])[n]3c2ccc3/C(c2ccc(C(=O)O)cc2)=C2/C=CC(=N2)\C=4c2ccc(C(=O)O)cc2)cc1` [MnTBAP, manganese tetrakis 5, 10, 15, 20 . . . porphyrin], in the data set with CD-1 Sod2−/− mice, the cardiomyopathy result is recorded as “ameliorated” and the neurodegeneration entry is listed as “but not neurodegeneration”.
